Reference: ChEMBL document CHEMBL5500375, “Design, synthesis, and evaluation of N1,N3-dialkyldioxonaphthoimidazoliums as antibacterial agents against methicillin-resistant Staphylococcus aureus” (Eur J Med Chem, 2024)
Active and inactive are the calls of the source. The rule behind the calls is not given here.

Tests used:
[1] = In vivo toxicity in Drosophila melanogaster strain Oregon R assessed as survival rate at 0.1 to 1 mg/ml measured upto 72 hrs relative to control; format: organism-based; conditions: Oregon R, at 0.1 to 1 mg/mL, dose 0.1-1 mg/ml
Staphylococcus aureus [2] = assay: Antibacterial agents against c5-resistant mutant of methicillin-resistant Staphylococcus aureus SA3 m1 assessed as absence of growth at 0.19 ug/ml measured after overnight incubation under anaerobic condition in presence of N-acetylcysteine by micro-dilution method; format: functional, organism-based; conditions: dose 0.19 µg/ml
Staphylococcus aureus [3] = assay: Antibacterial agents against c5-resistant mutant of methicillin-resistant Staphylococcus aureus SA3 m6 assessed as absence of growth at 0.19 ug/ml measured after overnight incubation under anaerobic condition in presence of N-acetylcysteine by micro-dilution method; format: functional, organism-based; conditions: dose 0.19 µg/ml
Staphylococcus aureus [4] = assay: Induction of ROS generation in methicillin-resistant Staphylococcus aureus USA300 using hydroxyphenyl fluorescein at 0.09 ug/ml under anaerobic condition; format: functional, organism-based; conditions: dose 0.09 µg/ml, TDE = time-dependent effect
Staphylococcus aureus [5] = assay: Anti-biofilim activity against methicillin-resistant Staphylococcus aureus SA3 assessed decrease in biofilm growth at 1 to 10 times of MIC concentration measured after 12 to 24 hrs incubation; format: functional, organism-based; conditions: time 12-24 hrs
Staphylococcus aureus [6] = assay: Antibacterial activity against c5-resistant mutant of methicillin-resistant Staphylococcus aureus SA3 m6 assessed as resistance by measuring antibacterial activity after 20 passages at 200 ug/ml by emergence of bacterial resistance assay; format: functional, organism-based; conditions: dose 200.0 µg/ml
Pseudomonas aeruginosa [7] = assay: Antibacterial agents against gram negative Pseudomonas aeruginosa PA14 assessed as reduction in colony forming unit at 0.78 ug/ml measured upto 10 hrs in presence of 0.1 ug/ml Polymyxin B by LB agar medium method; format: functional, organism-based; conditions: dose 0.78 µg/ml
Staphylococcus aureus [8] = assay: In vivo antibacterial activity against methicillin-resistant Staphylococcus aureus SA3 infected in dorsal thorax of Drosophila melanogaster strain Oregon R assessed as survival time of Drosophila at 0.2 mg/ml measured upto 72 hrs; format: functional
[9] = Cytotoxicity against human HDFa cells assessed as cell survival measured after 72 hrs incubation by Cell Titer-Glo luminescent assay; format: toxicity, cell-based
Staphylococcus aureus [10] = assay: Antibacterial activity against methicillin-resistant Staphylococcus aureus SA3 assessed as absence of growth measured after 16 passages by emergence of bacterial resistance assay; format: functional
Escherichia coli [11] = assay: Antibacterial agents against gram negative Escherichia coli MG1655 assessed as reduction in colony forming unit at 0.78 ug/ml measured upto 10 hrs by LB agar medium method; format: functional, organism-based; conditions: dose 0.78 µg/ml
Staphylococcus aureus [12] = assay: Induction of ROS generation in methicillin-resistant Staphylococcus aureus USA300 using hydroxyphenyl fluorescein at 0.19 ug/ml under anaerobic condition; format: functional, organism-based; conditions: dose 0.19 µg/ml
Staphylococcus aureus [13] = assay: Bactericidal activity against methicillin-resistant Staphylococcus aureus SA3 assessed as as reduction in colony forming unit at 0.78 ug/ml measured within 10 hrs by time-kill assay; format: functional; conditions: dose 0.78 µg/ml
[14] = Metabolic stability in human liver microsomes assessed as half life at 2 uM preincubated for 5 mins followed by NADPH addition and measured for 35 mins by LC/MS analysis; format: ADME, Microsome; conditions: preincubation 5 min
Staphylococcus aureus [15] = assay: Antibacterial agents against methicillin-sensitive Staphylococcus aureus SA1 assessed as absence of growth at 0.19 ug/ml measured after overnight incubation under anaerobic condition in presence of N-acetylcysteine by micro-dilution method; format: functional, organism-based; conditions: dose 0.19 µg/ml
Staphylococcus aureus [16] = assay: Antibacterial agents against methicillin-resistant Staphylococcus aureus SA3 assessed as absence of growth at 0.19 ug/ml measured after overnight incubation under anaerobic condition in presence of N-acetylcysteine by micro-dilution method; format: functional, organism-based; conditions: dose 0.19 µg/ml
Staphylococcus aureus [17] = assay: Reduction in virulent activity of methicillin-resistant Staphylococcus aureus SA3 infected in dorsal thorax of Drosophila melanogaster strain Oregon R at 0.2 mg/ml measured upto 72 hrs; format: functional, organism-based
Staphylococcus aureus [18] = assay: Antibacterial activity against c5-resistant mutant of methicillin-resistant Staphylococcus aureus SA3 m6 assessed as fold increase in MIC measured after 12 passages to MIC during first passage; format: functional
Escherichia coli [19] = assay: Antibacterial agents against gram negative Escherichia coli MG1655 assessed as reduction in colony forming unit at 0.78 ug/ml measured upto 10 hrs in presence of 0.2 ug/ml Polymyxin B by LB agar medium method; format: functional; conditions: dose 0.78 µg/ml
Staphylococcus aureus [20] = assay: Antibacterial agents against c5-resistant mutant of methicillin-resistant Staphylococcus aureus SA3 m2 assessed as absence of growth at 0.19 ug/ml measured after overnight incubation under anaerobic condition in presence of N-acetylcysteine by micro-dilution method; format: functional, organism-based; conditions: dose 0.19 µg/ml
Staphylococcus aureus [21] = assay: Antibacterial agents against methicillin-sensitive Staphylococcus aureus SA1 assessed as absence of growth measured after 18 hrs by micro-dilution method; format: functional
Escherichia coli [22] = assay: Antibacterial agents against gram negative Escherichia coli MG1655 assessed as reduction in colony forming unit at 0.78 ug/ml measured upto 10 hrs in presence of 0.05 to 0.2 ug/ml Polymyxin B by LB agar medium method; format: functional, organism-based; conditions: dose 0.78 µg/ml
Staphylococcus aureus [23] = assay: Induction of ROS generation in methicillin-resistant Staphylococcus aureus SA3 using hydroxyphenyl fluorescein at 0.19 ug/ml under anaerobic condition; format: functional, organism-based; conditions: dose 0.19 µg/ml
Pseudomonas aeruginosa [24] = assay: Antibacterial agents against gram negative Pseudomonas aeruginosa PA14 assessed as reduction in colony forming unit at 0.78 ug/ml in presence of 0.1 to 0.2 ug/ml Polymyxin B by LB agar medium method; format: functional, organism-based; conditions: dose 0.78 µg/ml, time 0-10 hrs, TDE = time-dependent effect
Staphylococcus aureus [25] = assay: Antibacterial agents against c5-resistant mutant of methicillin-resistant Staphylococcus aureus SA3 m4 assessed as absence of growth at 0.19 ug/ml measured after overnight incubation under anaerobic condition in presence of N-acetylcysteine by micro-dilution method; format: functional, organism-based; conditions: dose 0.19 µg/ml
[26] = Cytotoxicity against human HEK293 cells assessed as cell survival measured after 72 hrs incubation by Cell Titer-Glo luminescent assay; format: toxicity, cell-based
Staphylococcus aureus [27] = assay: Antibacterial agents against c5-resistant mutant of methicillin-resistant Staphylococcus aureus SA3 m5 assessed as absence of growth at 0.19 ug/ml measured after overnight incubation under anaerobic condition in presence of N-acetylcysteine by micro-dilution method; format: functional, organism-based; conditions: dose 0.19 µg/ml
Staphylococcus aureus [28] = assay: Anti-biofilim activity against methicillin-sensitive Staphylococcus aureus Newman assessed decrease in biofilm growth at 1 to 10 times of MIC concentration measured after 12 to 24 hrs incubation; format: functional, organism-based; conditions: time 12-24 hrs
Staphylococcus aureus [29] = assay: Antibacterial agents against methicillin-resistant Staphylococcus aureus USA300 assessed as absence of growth measured after 18 hrs by micro-dilution method; format: functional
Staphylococcus aureus [30] = assay: Induction of ROS generation in methicillin-resistant Staphylococcus aureus SA3 using hydroxyphenyl fluorescein at 0.09 ug/ml under anaerobic condition; format: functional, organism-based; conditions: dose 0.09 µg/ml, TDE = time-dependent effect
Staphylococcus aureus [31] = assay: Bactericidal activity against methicillin-resistant Staphylococcus aureus SA3 assessed as as reduction in colony forming unit at 0.78 ug/ml measured upto 10 hrs by time-kill assay; format: functional, organism-based; conditions: dose 0.78 µg/ml
Staphylococcus aureus [32] = assay: Antibacterial activity against methicillin-resistant Staphylococcus aureus SA3 assessed as resistance by measuring antibacterial activity after 10 passages at 0.39 ug/ml by emergence of bacterial resistance assay; format: functional, organism-based; conditions: dose 0.39 µg/ml
Staphylococcus aureus [33] = assay: Antibacterial agents against c5-resistant mutant of methicillin-resistant Staphylococcus aureus SA3 m1 assessed as absence of growth measured after 18 hrs by micro-dilution method; format: functional
Staphylococcus aureus [34] = assay: Antibacterial activity against methicillin-resistant Staphylococcus aureus SA3 assessed as fold increase in MIC measured after 16 passages to MIC during first passage; format: functional

## CCCCCCCCn1c2c([n+](Cc3ccccc3)c1C)C(=O)c1ccccc1C2=O.[Br-]
[1]
  survival at 72 h: 75%
Staphylococcus aureus [2]
  Activity: inactive
Staphylococcus aureus [3]
  Activity: inactive
Staphylococcus aureus [4]
  Activity: Tde
Staphylococcus aureus [5]
  Activity: Active
Staphylococcus aureus [6]
  Activity: inactive
Pseudomonas aeruginosa [7]
  Activity: Active
Staphylococcus aureus [8]
  Time: 62 h
[9]
  IC50 at 72 h: 1060 nM
Staphylococcus aureus [10]
  MIC: 1.56 µg/mL
Escherichia coli [11]
  Activity: inactive
Staphylococcus aureus [12]
  Activity: Active
Staphylococcus aureus [13]
  Activity: 3 log10CFU/ml
[14]
  half-life at 2 µM: 32 min
Staphylococcus aureus [15]
  Activity: inactive
Staphylococcus aureus [16]
  Activity: inactive
Staphylococcus aureus [17]
  Activity: inactive
Staphylococcus aureus [18]
  fold change (FC): 2
Escherichia coli [19]
  Activity: 4 log10CFU/ml
Staphylococcus aureus [20]
  Activity: inactive
Staphylococcus aureus [21]
  MIC: 0.19 µg/mL
Escherichia coli [22]
  Activity: inactive
Staphylococcus aureus [23]
  Activity: Active
Pseudomonas aeruginosa [24]
  Activity: Tde
Staphylococcus aureus [25]
  Activity: inactive
[26]
  IC50 at 72 h: 293 nM
Staphylococcus aureus [27]
  Activity: inactive
Staphylococcus aureus [28]
  Activity: Active
Staphylococcus aureus [29]
  MIC: 0.39 µg/mL
Staphylococcus aureus [30]
  Activity: Tde
Staphylococcus aureus [31]
  Activity: Active
Staphylococcus aureus [32]
  Activity: Active
Staphylococcus aureus [33]
  MIC: 6.25 µg/mL
Staphylococcus aureus [34]
  fold change (FC): 4
